Measured values as given in patent US12390486B2, “Method for treating diastolic heart failure by inhibiting galectin-3” (Henry Ford Health System, priority 2012, dated 2025).
Where “and” joins values, the source holds several entries; their conditions need not be identical. Equal entries are not always repeated.

System: dogs with microembolization-induced HF
Experiment: LacNAc in dogs with microembolization-induced HF (Example 2)
Format: in vivo, dog
Conditions: for VFIF (LV Volume fraction of interstitial fibrosis) / ODD (Oxygen diffusion distance) / VFRF (LV volume fraction of replacement fibrosis) / MCSA (myocyte cross-sectional area) / Cap/mm^2 (Capillary density) / Cardiac Output / PE/PA / Ei/Ai / Stroke Volume / Left Ventricular Fractional Area of Shortening / Left Ventricular Ejection Fraction / Left Ventricular End-Systolic Volume / Left Ventricular End-Diastolic Volume / Diastolic Aortic Pressure / Mean Aortic Pressure / Heart Rate / Systolic Aortic Pressure / DT / Systemic Vascular Resistance: individual dogs and Mean (n=3); for VFIF (LV Volume fraction of interstitial fibrosis): historical controls mean 12.95; for ODD (Oxygen diffusion distance): historical controls mean 13.10; for VFRF (LV volume fraction of replacement fibrosis): historical controls mean 13.8; for MCSA (myocyte cross-sectional area): historical controls mean 575; for Cap/mm^2 (Capillary density): historical controls mean 2063; for Cardiac Output / PE/PA / Ei/Ai / Stroke Volume / Left Ventricular Fractional Area of Shortening / Left Ventricular Ejection Fraction / Left Ventricular End-Systolic Volume / Left Ventricular End-Diastolic Volume / Diastolic Aortic Pressure / Mean Aortic Pressure / Heart Rate / Systolic Aortic Pressure / DT / Systemic Vascular Resistance: 115 mg LacNAc oral daily, 12 weeks; for Cardiac Output: PRE mean 1.41; for PE/PA: PRE mean 1.80; for Ei/Ai: PRE mean 2.98; for Stroke Volume: PRE mean 17; for Left Ventricular Fractional Area of Shortening: PRE mean 28.3; for Left Ventricular Ejection Fraction: PRE mean 30; for Left Ventricular End-Systolic Volume: PRE mean 39; for Left Ventricular End-Diastolic Volume: PRE mean 56; for Diastolic Aortic Pressure: PRE mean 62; for Mean Aortic Pressure: PRE mean 73; for Heart Rate: PRE mean 84; for Systolic Aortic Pressure: PRE mean 87; for DT: PRE mean 131; for Systemic Vascular Resistance: PRE mean 4209
Protocol: In this dog model of HF, the development of the disease is associated with an increase in the volume fraction of interstitial fibrosis in the left ventricular wall from a normal level of 3.5% (connective tissue) to as high as 25%. Dogs were treated for 3 months with daily oral administration of 115 mg of LacNAc. […] This finding is similar to that observed with MCP (Example 1), as illustrated in FIG. 2. […] All of these findings support a marked improvement of LV function and cellular remodeling sought for treatment of HFpEF.

[1] = 115 mg LacNAc oral daily for 3 months, 3 dogs
[2] = 115 mg LacNAc oral daily for 3 months
[3] = 115 mg LacNAc oral daily for 3 months, mean

## CC(=O)N[C@H]1C(O)O[C@H](CO)[C@@H](O[C@@H]2O[C@H](CO)[C@H](O)[C@H](O)[C@H]2O)[C@@H]1O (stereo partly drawn) [LacNAc, N-acetyl-D-lactosamine]
[1]
  LV ejection fraction: improved LV ejection fraction
  LV relaxation (Ei/Ai, PE/PA and DT): improved LV relaxation
  capillary density: increased capillary density
  myocyte hypertrophy: decreased myocyte hypertrophy
  oxygen diffusion: increased oxygen diffusion
  stroke volume and cardiac output: increased stroke volume and cardiac output
115 mg LacNAc oral daily for 3 months, 3 dogs, compared to historical untreated controls matched for LV ejection fraction, gender, duration of heart failure
  reduction of reactive interstitial fibrosis: ~57%
[2]
  VFIF (LV Volume fraction of interstitial fibrosis): 5.27% (2×) and 6.07%
  ODD (Oxygen diffusion distance): 9.18 μm and 9.48 μm and 9.11 μm
  VFRF (LV volume fraction of replacement fibrosis): 10.4% and 13.6% and 13.8%
  MCSA (myocyte cross-sectional area): 373 μm^2 and 393 μm^2 and 418 μm^2
  Cap/mm^2 (Capillary density): 2989 Cap/mm^2 and 2977 Cap/mm^2 and 3042 Cap/mm^2
[3]
  VFIF (LV Volume fraction of interstitial fibrosis): 5.54%
  ODD (Oxygen diffusion distance): 9.26 μm
  VFRF (LV volume fraction of replacement fibrosis): 12.6%
  MCSA (myocyte cross-sectional area): 395 μm^2
  Cap/mm^2 (Capillary density): 3002 Cap/mm^2
  Cardiac Output: 2.02 L/min and 1.80 L/min and 1.67 L/min
  PE/PA: 1.82 and 2.52 and 1.84
  Ei/Ai: 4.26 and 4.43 and 3.25
  Stroke Volume: 24 mL and 20 mL and 19 mL
  Left Ventricular Fractional Area of Shortening: 31% and 41% and 29%
  Left Ventricular Ejection Fraction: 42% and 38% and 31%
  Left Ventricular End-Systolic Volume: 33 ml (2×) and 43 ml
  Left Ventricular End-Diastolic Volume: 57 mL and 53 mL and 62 mL
  Diastolic Aortic Pressure: 60 mmHg and 67 mmHg and 62 mmHg
  Mean Aortic Pressure: 72 mmHg and 76 mmHg and 73 mmHg
  Heart Rate: 84 beats/min and 90 beats/min and 88 beats/min
  Systolic Aortic Pressure: 88 mmHg (2×) and 90 mmHg
  DT: 162 msec (2×) and 115 msec
  Systemic Vascular Resistance: 2857 dynes-sec-cm^-5 and 3378 dynes-sec-cm^-5 and 3493 dynes-sec-cm^-5
mean
  Cardiac Output: 1.83 L/min
  PE/PA: 2.06
  Ei/Ai: 3.98
  Stroke Volume: 21 mL
  Left Ventricular Fractional Area of Shortening: 33.7%
  Left Ventricular Ejection Fraction: 37%
  Left Ventricular End-Systolic Volume: 36 mL
  Left Ventricular End-Diastolic Volume: 57 mL
  Diastolic Aortic Pressure: 63 mmHg
  Mean Aortic Pressure: 74 mmHg
  Heart Rate: 87 beats/min
  Systolic Aortic Pressure: 89 mmHg
  DT: 146 ms
  Systemic Vascular Resistance: 3243 dynes-sec-cm^-5
